Results reported in ChEMBL document CHEMBL1821674, “Design, synthesis and biological evaluation of novel nitroaromatic compounds as potent glutathione reductase inhibitors” (Bioorg Med Chem Lett, 2011).

Key:
[1] = molecular target: T1, Glutathione reductase, mitochondrial (Homo sapiens, UniProt P00390)
T1 sequence (P00390 whole entry): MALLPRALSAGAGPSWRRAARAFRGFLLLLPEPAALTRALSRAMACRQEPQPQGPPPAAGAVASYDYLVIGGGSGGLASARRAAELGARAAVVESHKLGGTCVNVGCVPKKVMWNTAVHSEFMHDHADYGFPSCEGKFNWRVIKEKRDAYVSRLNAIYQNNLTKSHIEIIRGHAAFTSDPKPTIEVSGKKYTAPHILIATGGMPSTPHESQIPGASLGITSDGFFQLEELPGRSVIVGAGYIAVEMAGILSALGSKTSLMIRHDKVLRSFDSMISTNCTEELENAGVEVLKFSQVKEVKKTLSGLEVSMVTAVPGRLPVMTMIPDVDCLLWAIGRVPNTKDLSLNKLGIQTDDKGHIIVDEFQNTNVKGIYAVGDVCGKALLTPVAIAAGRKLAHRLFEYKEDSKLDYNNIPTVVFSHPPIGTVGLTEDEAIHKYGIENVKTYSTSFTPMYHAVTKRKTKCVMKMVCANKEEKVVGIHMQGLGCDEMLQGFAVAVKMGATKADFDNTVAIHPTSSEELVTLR

[2] = molecular target: T1, Glutathione reductase, mitochondrial; assay: Inhibition of human erythrocyte Glutathione reductase
[3] = molecular target: T1, Glutathione reductase, mitochondrial; assay: Non-Competitive inhibition of human erythrocyte Glutathione reductase using GSSG substrate by Lineweaver-Burk plot analysis

Question: How did the Ki [1] turn out when `COC(=O)C1=C(C)NC(C)=C(C(=O)OC)C1c1ccccc1[N+](=O)[O-]` [NIFEDIPINE] was run?
Answer: The Ki was 17.4 µM.

Question: And the IC50 [2]?
Answer: Its IC50 is 23.4 µM.

Question: With `N[C@@H](CCC(=O)O)C(=O)O` [GLUTAMIC ACID] as the compound, how does the Ki [1] read?
Answer: The Ki was 42.7 µM.

Question: What about the IC50 [2] of the same compound?
Answer: The IC50 was 53.7 µM.

Question: With `O=C(O)CC[C@H](NC(=O)c1ccc([N+](=O)[O-])cc1)C(=O)O` as the compound, how does the Ki [1] read?
Answer: Its Ki is 0.211 µM.

Question: What about the IC50 [2] of the same compound?
Answer: Its IC50 is 0.344 µM.

Question: `CC[C@H](CO)NCc1ccc([N+](=O)[O-])cc1` was tested. Which Ki [1] did it give?
Answer: Its Ki is 4.57 µM.

Question: And the IC50 [2]?
Answer: Its IC50 is 13.3 µM.

Question: `CC(C)(C)OC(=O)N[C@@H](CCCCNC(=O)OCc1ccccc1Cl)C(=O)Oc1ccc([N+](=O)[O-])cc1` was tested. Which IC50 [2] did it give?
Answer: The IC50 was 15.4 µM.

Question: What about the Ki [3] of the same compound?
Answer: The Ki was 4.16 µM.

Question: Which results are given for `NCCCC[C@H](N)C(=O)O` [LYSINE]?
Answer: Ki [1]: 54.6 µM; IC50 [2]: 61.2 µM

Question: For `O=[N+]([O-])c1ccccc1` [NITROBENZENE], which Ki [1] is on record?
Answer: Its Ki is 274 µM.

Question: And the IC50 [2]?
Answer: Its IC50 is 547 µM.
